Test results reported in the NIST ThermoML archive (doi:10.1016/j.jct.2019.04.018).
± gives the expanded uncertainty stated by the source.

Experiment: xn = mol fraction of the nth substance listed
Conditions: 100 kPa, Liquid; for viscosity: Capillary tube (Ostwald / Ubbelohde) method; for speed of sound: Frequency=2 MHz, Single path-length method; for mass density: Vibrating tube method

C=COCCCC [1-(ethenyloxy)butane] + C=COC(C)=O
Conditions	mass density, 303.15 K [kg/m3]	mass density, 308.15 K [kg/m3]	mass density, 313.15 K [kg/m3]	speed of sound, 303.15 K [m/s]	speed of sound, 308.15 K [m/s]	speed of sound, 313.15 K [m/s]	viscosity, 303.15 K [mPa·s]	viscosity, 308.15 K [mPa·s]	viscosity, 313.15 K [mPa·s]
x2 = 0	769 ± 1.2	763.9 ± 1.2	758.8 ± 1.2	1086 ± 6	1076 ± 6	1066 ± 6	0.386 ± 0.015	0.373 ± 0.015	0.352 ± 0.015
x2 = 0.1022	779.6 ± 1.2	774.4 ± 1.2	769.1 ± 1.2	1086 ± 6	1076 ± 6	1066 ± 6	0.385 ± 0.015	0.368 ± 0.014	0.35 ± 0.014
x2 = 0.2014	790.7 ± 1.1	785.4 ± 1.1	780 ± 1.1	1086 ± 6	1076 ± 6	1065 ± 6	0.381 ± 0.014	0.364 ± 0.014	0.344 ± 0.014
x2 = 0.2948	801.9 ± 1.1	796.5 ± 1.1	791 ± 1.1	1087 ± 6	1075 ± 6	1064 ± 6	0.377 ± 0.014	0.36 ± 0.014	0.339 ± 0.014
x2 = 0.4002	815.6 ± 1.1	810 ± 1.1	804.4 ± 1.1	1087 ± 6	1075 ± 6	1064 ± 6	0.374 ± 0.014	0.357 ± 0.014	0.338 ± 0.014
x2 = 0.502	829.9 ± 1.1	824.1 ± 1.1	818.3 ± 1.1	1087 ± 5	1074 ± 5	1062 ± 5	0.372 ± 0.014	0.355 ± 0.014	0.336 ± 0.014
x2 = 0.5997	844.6 ± 1.1	838.7 ± 1.1	832.8 ± 1.1	1088 ± 5	1074 ± 5	1062 ± 5	0.373 ± 0.014	0.357 ± 0.014	0.337 ± 0.014
x2 = 0.6979	860.6 ± 1.1	854.5 ± 1.1	848.4 ± 1.1	1088 ± 5	1074 ± 5	1061 ± 5	0.375 ± 0.014	0.358 ± 0.014	0.338 ± 0.014
x2 = 0.7949	877.7 ± 1.1	871.6 ± 1.1	865.3 ± 1.1	1089 ± 5	1074 ± 5	1059 ± 5	0.378 ± 0.014	0.36 ± 0.014	0.341 ± 0.014
x2 = 0.8999	898 ± 1.1	891.9 ± 1.1	885.5 ± 1.1	1090 ± 5	1074 ± 5	1057 ± 5	0.383 ± 0.014	0.365 ± 0.014	0.346 ± 0.014

C=COC(C)=O [vinyl acetate] + CC(C)OC(C)C
Conditions	mass density, 303.15 K [kg/m3]	mass density, 308.15 K [kg/m3]	mass density, 313.15 K [kg/m3]	speed of sound, 303.15 K [m/s]	speed of sound, 308.15 K [m/s]	speed of sound, 313.15 K [m/s]	viscosity, 303.15 K [mPa·s]	viscosity, 308.15 K [mPa·s]	viscosity, 313.15 K [mPa·s]
x1 = 0.1031	727.4 ± 1.2	722.1 ± 1.2	716.5 ± 1.2	990 ± 6	970 ± 6	948 ± 6	0.308 ± 0.014	0.293 ± 0.014	0.28 ± 0.014
x1 = 0.1977	741.4 ± 1.1	736 ± 1.1	730.4 ± 1.1	996 ± 6	976 ± 6	955 ± 6	0.313 ± 0.014	0.297 ± 0.014	0.284 ± 0.014
x1 = 0.3004	757.8 ± 1.1	752.3 ± 1.1	746.6 ± 1.1	1004 ± 6	985 ± 6	964 ± 6	0.318 ± 0.014	0.302 ± 0.014	0.288 ± 0.014
x1 = 0.4002	775 ± 1.1	769.4 ± 1.1	763.7 ± 1.1	1013 ± 6	993 ± 6	972 ± 6	0.324 ± 0.014	0.307 ± 0.014	0.294 ± 0.014
x1 = 0.5001	793.8 ± 1.1	788.1 ± 1.1	782.3 ± 1.1	1022 ± 5	1002 ± 5	982 ± 5	0.33 ± 0.014	0.313 ± 0.014	0.299 ± 0.014
x1 = 0.6027	814.8 ± 1.1	809.1 ± 1.1	803.2 ± 1.1	1032 ± 5	1012 ± 5	992 ± 5	0.338 ± 0.014	0.32 ± 0.014	0.306 ± 0.014
x1 = 0.7001	836.9 ± 1.1	831 ± 1.1	825 ± 1.1	1042 ± 5	1024 ± 5	1003 ± 5	0.347 ± 0.014	0.329 ± 0.014	0.313 ± 0.014
x1 = 0.801	861.9 ± 1.1	856 ± 1.1	849.8 ± 1.1	1056 ± 5	1038 ± 5	1016 ± 5	0.359 ± 0.014	0.34 ± 0.014	0.323 ± 0.014
x1 = 0.9014	889.5 ± 1.1	883.5 ± 1.1	877.2 ± 1.1	1072 ± 5	1053 ± 5	1032 ± 5	0.372 ± 0.014	0.353 ± 0.014	0.335 ± 0.014
x1 = 1	919.4 ± 1.1	913.5 ± 1.1	907.3 ± 1.1	1092 ± 5	1074 ± 5	1054 ± 5	0.388 ± 0.014	0.37 ± 0.014	0.352 ± 0.014

C=COC(C)=O [vinyl acetate] + CCCCOCCCC
Conditions	mass density, 303.15 K [kg/m3]	mass density, 308.15 K [kg/m3]	mass density, 313.15 K [kg/m3]	speed of sound, 303.15 K [m/s]	speed of sound, 308.15 K [m/s]	speed of sound, 313.15 K [m/s]	viscosity, 303.15 K [mPa·s]	viscosity, 308.15 K [mPa·s]	viscosity, 313.15 K [mPa·s]
x1 = 0.0956	767.4 ± 1.1	763 ± 1.1	758.2 ± 1.1	1141 ± 5	1123 ± 5	1107 ± 5	0.575 ± 0.015	0.54 ± 0.014	0.509 ± 0.014
x1 = 0.1922	776.2 ± 1.1	771.6 ± 1.1	767 ± 1.1	1136 ± 5	1118 ± 5	1100 ± 5	0.549 ± 0.014	0.517 ± 0.014	0.489 ± 0.014
x1 = 0.3008	787.4 ± 1.1	782.6 ± 1.1	777.8 ± 1.1	1131 ± 5	1112 ± 5	1093 ± 5	0.522 ± 0.014	0.493 ± 0.014	0.467 ± 0.014
x1 = 0.3962	798.4 ± 1.1	793.5 ± 1.1	788.5 ± 1.1	1126 ± 5	1107 ± 5	1087 ± 5	0.499 ± 0.014	0.472 ± 0.014	0.447 ± 0.014
x1 = 0.5008	812.2 ± 1.1	807.1 ± 1.1	801.9 ± 1.1	1120 ± 5	1102 ± 5	1080 ± 5	0.476 ± 0.014	0.451 ± 0.014	0.427 ± 0.014
x1 = 0.5997	827.4 ± 1.1	822 ± 1.1	816.6 ± 1.1	1115 ± 5	1096 ± 5	1074 ± 5	0.455 ± 0.014	0.431 ± 0.014	0.409 ± 0.014
x1 = 0.6995	845 ± 1.1	839.4 ± 1.1	833.7 ± 1.1	1110 ± 5	1091 ± 5	1068 ± 5	0.436 ± 0.014	0.414 ± 0.014	0.393 ± 0.014
x1 = 0.7995	865.6 ± 1.1	859.8 ± 1.1	853.8 ± 1.1	1104 ± 5	1085 ± 5	1063 ± 5	0.417 ± 0.014	0.398 ± 0.014	0.379 ± 0.014
x1 = 0.8998	890 ± 1.1	883.8 ± 1.1	877.6 ± 1.1	1099 ± 5	1080 ± 5	1058 ± 5	0.401 ± 0.014	0.383 ± 0.014	0.365 ± 0.014
x1 = 1	919.4 ± 1.1	913.5 ± 1.1	907.3 ± 1.1	1092 ± 5	1074 ± 5	1054 ± 5	0.388 ± 0.014	0.37 ± 0.014	0.352 ± 0.014

C=COC(C)=O [vinyl acetate] + COc1ccccc1
Conditions	mass density, 303.15 K [kg/m3]	mass density, 308.15 K [kg/m3]	mass density, 313.15 K [kg/m3]	speed of sound, 303.15 K [m/s]	speed of sound, 308.15 K [m/s]	speed of sound, 313.15 K [m/s]	viscosity, 303.15 K [mPa·s]	viscosity, 308.15 K [mPa·s]	viscosity, 313.15 K [mPa·s]
x1 = 0.0981	979.4 ± 1.1	974.6 ± 1.1	969.5 ± 1.1	1350 ± 5	1329 ± 5	1310 ± 5	0.843 ± 0.015	0.775 ± 0.015	0.724 ± 0.015
x1 = 0.199	974 ± 1.1	969 ± 1.1	963.8 ± 1.1	1316 ± 5	1294 ± 5	1274 ± 5	0.766 ± 0.015	0.708 ± 0.015	0.664 ± 0.015
x1 = 0.3015	968.3 ± 1.1	963.1 ± 1.1	957.8 ± 1.1	1283 ± 5	1260 ± 5	1239 ± 5	0.696 ± 0.015	0.647 ± 0.015	0.609 ± 0.015
x1 = 0.3972	962.6 ± 1.1	957.4 ± 1.1	951.9 ± 1.1	1253 ± 5	1230 ± 5	1208 ± 5	0.638 ± 0.015	0.595 ± 0.015	0.562 ± 0.014
x1 = 0.5005	956.2 ± 1.1	950.8 ± 1.1	945.2 ± 1.1	1223 ± 5	1199 ± 5	1177 ± 5	0.583 ± 0.015	0.546 ± 0.014	0.515 ± 0.014
x1 = 0.5979	949.8 ± 1.1	944.2 ± 1.1	938.5 ± 1.1	1194 ± 5	1171 ± 5	1150 ± 5	0.535 ± 0.014	0.503 ± 0.014	0.476 ± 0.014
x1 = 0.6988	942.8 ± 1.1	937 ± 1.1	931.1 ± 1.1	1167 ± 5	1144 ± 5	1122 ± 5	0.492 ± 0.014	0.464 ± 0.014	0.439 ± 0.014
x1 = 0.8029	935.1 ± 1.1	929.2 ± 1.1	923.1 ± 1.1	1139 ± 5	1118 ± 5	1096 ± 5	0.451 ± 0.014	0.427 ± 0.014	0.406 ± 0.014
x1 = 0.9005	927.5 ± 1.1	921.5 ± 1.1	915.3 ± 1.1	1115 ± 5	1095 ± 5	1074 ± 5	0.418 ± 0.014	0.397 ± 0.014	0.377 ± 0.014
x1 = 1	919.4 ± 1.1	913.5 ± 1.1	907.3 ± 1.1	1092 ± 5	1074 ± 5	1054 ± 5	0.388 ± 0.014	0.37 ± 0.014	0.352 ± 0.014
